Active and inactive are the calls of the source. No cut-off for these calls is given here.

The nature of data set [1]: Retention time of compound by HPLC analysis. It is filed as physicochemical.
The nature of data set [2]: Stability of compound in PBS buffer incubated for 8 to 24 hrs by HPLC analysis. It is filed as physicochemical. The settings on record: time 8-24 hrs.
The target in another data set is T1, Liver carboxylesterase (Sus scrofa, UniProt Q29550).
T1 sequence (Q29550 whole entry): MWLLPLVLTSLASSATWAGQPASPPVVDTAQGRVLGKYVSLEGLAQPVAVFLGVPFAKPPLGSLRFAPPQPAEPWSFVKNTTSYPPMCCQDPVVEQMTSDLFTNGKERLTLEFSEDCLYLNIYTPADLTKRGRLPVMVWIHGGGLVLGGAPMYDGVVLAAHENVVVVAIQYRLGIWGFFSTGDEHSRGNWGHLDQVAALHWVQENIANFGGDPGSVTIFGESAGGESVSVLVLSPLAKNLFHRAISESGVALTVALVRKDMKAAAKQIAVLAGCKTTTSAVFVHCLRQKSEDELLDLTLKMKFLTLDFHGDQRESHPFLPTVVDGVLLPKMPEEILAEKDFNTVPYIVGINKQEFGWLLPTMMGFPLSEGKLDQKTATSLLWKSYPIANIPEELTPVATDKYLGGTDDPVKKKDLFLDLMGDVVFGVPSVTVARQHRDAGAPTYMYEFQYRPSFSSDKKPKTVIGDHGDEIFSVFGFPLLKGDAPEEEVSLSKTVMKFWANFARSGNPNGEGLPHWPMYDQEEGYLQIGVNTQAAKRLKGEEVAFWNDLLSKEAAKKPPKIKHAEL
Briefly: Stability of the compound assessed as porcine liver esterase-mediated hydrolysis at 800 uM measured after 180 mins by HPLC analysis. It is filed as ADME. The settings on record: pig, isolated protein, 3 h.

A short description of data set [3]: Stability of the compound assessed as Pseudomonas aeruginosa Amidase-mediated hydrolysis at 800 uM measured after 6 hrs by HPLC analysis. In kind it is ADME. The settings on record: isolated protein.
Data set [4] is described as follows: Stability in cell culture medium containing fetal bovine serum assessed as compound remaining at 200 uM at 37 degreeC measured after 72 hrs by RP-HPLC analysis. In kind it is ADME, cell-free. The settings on record: cattle, read-out: Stability.
The test system of a further data set is K562-IMA[r]. Put plainly: Cytotoxicity against human Imatinib-resistant K562 cells assessed as effect on metabolic activity at 10 uM incubated for 72 hrs by MTT assay. In kind it is functional, cell-based. Background: Tetrazolium assays rely on reduction of a dye to a coloured formazan, in cell work by metabolically active cells.
Data set [5] in a line: Cytotoxicity against human HS5 cells assessed as effect on metabolic activity at 10 uM incubated for 72 hrs by MTT assay. The settings on record: hs5, 72 h. It is filed as toxicity, cell-based.
In another data set the test system is COS-7. Briefly: Cytotoxicity against african green monkey COS-7 cells assessed as effect on metabolic activity at 10 uM incubated for 72 hrs by MTT assay. In kind it is toxicity, cell-based. The settings on record: chlorocebus aethiops, cos-7, 72 h.
For data set [6], the system named is K562. Put plainly: Re-sensitization of human K562 cells to imatinib assessed as reduction in metabolic activity at 5 uM in presence of 1 uM imatinib by EZ4U assay. In kind it is functional, cell-based.
In data set [7] the test system is K562. Briefly: Re-sensitization of human K562 cells to imatinib assessed as reduction in metabolic activity by measuring maximal sensitizing concentration in presence of imatinib by EZ4U assay. In kind it is functional, cell-based. The settings on record: read-out: EC50.
The nature of data set [8]: Drug uptake in human Imatinib-resistant K562 cells assessed as increase in fluorescent intensity measured after 3 hrs by coomassie brilliant blue staining based analysis. It is filed as ADME, cell-based. The settings on record: k562-ima[r].
Data set [9] in a line: Drug uptake in human Imatinib-resistant K562 cells assessed as increase in fluorescent intensity measured after 1 hr by coomassie brilliant blue staining based analysis. In kind it is ADME, cell-based. The settings on record: k562-ima[r].
A short description of data set [10]: Drug uptake in human Imatinib-resistant K562 cells assessed as increase in fluorescent intensity measured at 24 hrs by coomassie brilliant blue staining based analysis. It is filed as ADME, cell-based. The settings on record: k562-ima[r].
The nature of data set [11]: Stability of the compound assessed as Pseudomonas aeruginosa Amidase-mediated hydrolysis at 800 uM measured after 24 hrs by HPLC analysis. It is filed as ADME. The settings on record: isolated protein.
Another data set has as its system amidase. Put plainly: Stability of the compound assessed as Pseudomonas aeruginosa Amidase-mediated hydrolysis by measuring half life at 800 uM measured after 24 hrs by HPLC analysis. It is filed as ADME.
Data set [12] is described as follows: Drug uptake in human Imatinib-resistant K562 cells assessed as increase in fluorescent intensity measured after 1 to 24 hrs by coomassie brilliant blue staining based analysis. The settings on record: k562-ima[r], time 1-24 hrs. In kind it is ADME, cell-based.
Data set [13] can be described thus: Drug uptake in human Imatinib-resistant K562 cells assessed as increase in fluorescent intensity measured after 24 hrs by coomassie brilliant blue staining based analysis. It is filed as ADME, cell-based. The settings on record: k562-ima[r].

In [1], `CCCc1nc2ccccc2n1Cc1ccc(-c2ccccc2C(=O)Nc2ccccc2)cc1` returned a Retention_time of 12 min. For the same compound, the Stability result (in data set [2]; at Liver carboxylesterase; in [3]) was “Stable” throughout. For the same compound, the remaining at 72 h, 200 µM in [4] is 98.4%. Moreover, the result in the data set on K562-IMA[r] was inactive. Besides, the Activity entry (in data set [5]; in the data set on COS-7) was “Non-toxic” throughout. Moreover, in the data set with K562 [6], the outcome was Active. For the same compound, the maximal sensitizing concentration in the data set on K562 [7] was determined as 1.6 µM. The Drug uptake in data set [8] turned out to be 2.7 nmol/mg; in [9] it was 1.9 nmol/mg; in data set [10] it was 14.5 nmol/mg.

A word on the half-life: it is the time in which the quantity being followed falls by half. In data set [1], `CCCc1nc2ccccc2n1Cc1ccc(-c2ccccc2C(=O)NC)cc1` returned a Retention_time of 9.9 min. The Stability result (in [2]; at Liver carboxylesterase; in [11]) was “Stable” in each case. For the same compound, the half-life at 800 µM in the data set with amidase is 33.6 h. Moreover, in [4], the remaining at 72 h, 200 µM stood at 93.4%. Further, the outcome in the data set on K562-IMA[r] and in the data set on K562 [6] was inactive. Moreover, the Activity entry (in [5]; in the data set on COS-7) was “Non-toxic” each time. Further, the maximal sensitizing concentration in the data set with K562 [7] stood at 11.2 µM. The Drug uptake entry in [12] and in data set [13] was “Not_active” in each case.

For the origin of these results see ChEMBL document CHEMBL6078682, “Circumventing Imatinib resistance in CML: Novel Telmisartan-based cell death modulators with improved activity and stability” (Eur J Med Chem, 2025).
